Results as given in ChEMBL document CHEMBL1649096, “Study of kaempferol glycoside as an insulin mimic reveals glycon to be the key active structure” (2011).
Active and inactive are the calls of the source. The rule behind the calls is not given here.

Tests used:
L6 [1] = assay: Insulin mimetic activity in rat L6 cells assessed as stimulation of 2-deoxyglucose uptake at 1 nM by enzymatic method relative to untreated control; format: functional
L6 [2] = assay: Insulin mimetic activity in rat L6 cells assessed as stimulation of 2-deoxyglucose uptake at 1 mM by enzymatic method relative to untreated control; format: functional, cell-based
L6 [3] = assay: Insulin mimetic activity in rat L6 cells assessed as stimulation of 2-deoxyglucose uptake at 0.1 nM by enzymatic method relative to untreated control; format: functional

Row | Structure (SMILES) | Activity (L6 [1]) | Activity (L6 [2]) | Activity (L6 [3]; filed as antagonist) | Activity (L6 [3])
1 | C[C@H]1O[C@H](O[C@H]2[C@H](Oc3c(-c4ccc(O)cc4)oc4cc(O)cc(O)c4c3=O)O[C@H](CO)[C@@H](O)[C@@H]2O)[C@@H](O)[C@@H](O)[C@@H]1O | 200% | inactive | – | –
2 | O=c1c(O)c(-c2ccc(O)cc2)oc2cc(O)cc(O)c12 | inactive | – | – | –
3 | O=c1c(O[C@@H]2O[C@H](CO)[C@@H](O)[C@H](O)[C@H]2O)c(-c2ccc(O)cc2)oc2cc(O)cc(O)c12 | inactive | – | Irreversible Antagonist | –
4 | C[C@@H]1O[C@@H](O[C@H]2C(O)O[C@H](CO)[C@@H](O)[C@@H]2O)[C@H](O)[C@H](O)[C@H]1O (some centres not stated) [NEOHESPERIDOSE] | 200% | – | – | 200%
